From ChEMBL document CHEMBL4002643, “Tubulin-binding dibenz[c,e]oxepines: Part 2. Structural variation and biological evaluation as tumour vasculature disrupting agents” (Bioorg Med Chem, 2017)

Columns and labels:
[1] = Inhibition of tubulin (unknown origin) assembly preincubated for 30 mins followed by GTP addition by spectrophotometric method; set-up: species or system Homo sapiens
[2] = Inhibition of porcine tubulin assembly measured for 30 mins by UV/visible spectrophotometric method; set-up: species or system Sus scrofa
K562 = experiment: Cytotoxicity against human K562 cells assessed as growth inhibition after 5 days by MTT assay; format: functional, cell-based; settings: K562, 120 h

| Compound | IC50 [1] [nM] | IC50 [2] [nM] | IC50 (K562) [nM] |
| --- | --- | --- | --- |
| COc1ccc2c(c1)[C@@H](NC(C)=O)CCc1cc(OC)c(OC)c(OC)c1-2 | 700 |  |  |
| COc1ccc(/C=C\c2cc(OC)c(OC)c(OC)c2)cc1OP(=O)(O)O [FOSBRETABULIN DISODIUM] |  | 900 | 720 |
| COc1cc2c(c(OC)c1OC)-c1ccc(OC)c(=O)cc1[C@@H](NC(C)=O)CC2 [COLCHICINE] |  | 2000 |  |
| COc1cc2c(c(OC)c1OC)-c1ccc(N)cc1COC2 |  | > 10000 | 10000 |
